# In PMC7286914 (2020):
# What was measured:
# Assay in all cases: Cy3/quencher fluorescence titration, Langmuir fit
# [1] = test system: A-C Mismatch (DNA, aptamer) CACCTGGGGGAGTATTGCGGAGGAAGGTTTTTTTTTTTTTACCCCCAAGTG; conditions: 6 mM MgCl2; Na+ (concentration not stated); 10 mM Tris, 10 mM Bis-Tris, 10 mM sodium acetate, pH 8, room temperature; apparent, intramolecular displacement strand competes
# [2] = test system: Combined TAT80/A-C Mismatch (DNA, aptamer) CACCTGGGGGAGTATTGCGGAGGAAGGTTTTGAAGAAAAAGATTGCTCTTTTTCTTATTGTTTCTTTTTCTATTTACCCCCAAGTG; conditions: 6 mM MgCl2; Na+ (concentration not stated); 10 mM Tris, 10 mM Bis-Tris, 10 mM sodium acetate, pH 6.5, room temperature; apparent, intramolecular displacement strand competes
# [3] = test system: A-G Mismatch (DNA, aptamer) CACCTGGGGGAGTATTGCGGAGGAAGGTTTTTTTTTTTTTTTCCCAAGGTG; conditions: 6 mM MgCl2; Na+ (concentration not stated); 10 mM Tris, 10 mM Bis-Tris, 10 mM sodium acetate, pH 7.5, room temperature; apparent, intramolecular displacement strand competes
# [4] = test system: TAT60 (DNA, aptamer) CACCTGGGGGAGTATTGCGGAGGAAGGTTTTGAGGGAAAGAATCATTTCTTTCCCTATGTTTCCCTTTCTTTTTAACCAGGTG; conditions: 6 mM MgCl2; Na+ (concentration not stated); 10 mM Tris, 10 mM Bis-Tris, 10 mM sodium acetate, pH 7, room temperature; apparent, intramolecular displacement strand competes
smiles,measurement,setting,value
Nc1ncnc2c1ncn2[C@@H]1O[C@H](COP(=O)(O)OP(=O)(O)OP(=O)(O)O)[C@@H](O)[C@H]1O,KDeff,[1],0.30 (95% CI 0.25–0.36) mM
same,KDeff,[2],32 (95% CI 27–39) μM
same,KDeff,[3],0.32 (95% CI 0.27–0.37) mM
same,KDeff,[4],3.9 (95% CI 3.2–4.8) mM
